In patent US11358972B2, “Pentacyclic heterocycles” (Eisai R&D Management Co., Ltd., priority 2019, dated 2022):

How the values were obtained:
[1] = tested on: Rat primary septal neuron culture; test: Measurement of acetylcholine (ACh) release in the rat primary septal neuron culture system; assay type: cell-based; conditions: 24 h, rat primary septal neurons, with NGF, ACh release measured by HPLC one day after compound addition, read-out: Concentration (μM) showing a 20% or more increase from the amount of ACh in the control group
Description: Measurement of Acetylcholine (ACh) Release in the Rat Primary Septal Neuron Culture System
(1) Rat Primary Septal Neuron Culture
The septal area was isolated from Sprague-Dawley (SD) rats (Charles River Laboratories Japan, Inc.) at a fetal age of 18 days, and cultured. Specifically, fetuses were removed from pregnant rats under isoflurane anesthesia. The brain was extracted from each fetus, and immersed in ice-cooled L-15 medium (11415-064, Thermo Fisher Scientific). The septal area was dissected from the extracted brain under a stereoscopic microscope. The dissected septal area was treated in 0.25% trypsin (15050-065, Thermo Fisher Scientific) and 0.01% DNase (D5025-150KU, Sigma) at 37° C. for 30 minutes, thereby dispersing the cells. In this case, the enzyme reaction was terminated by adding inactivated horse serum (26050-088, Thermo Fisher Scientific). The enzyme-treated solution was centrifuged at 1000 rpm for 3 minutes, and the supernatant was removed. A medium in an amount of 10 mL was added to the obtained cell mass. The medium used was Dulbecco's Modified Eagle's Medium (044-29765, WAKO) supplemented with N2 supplement (17502-048, Thermo Fisher Scientific), 1 mM sodium pyruvate (11360-070, Thermo Fisher Scientific), and Penicillin-Streptomycin (15140-1221, Thermo Fisher Scientific). The cells of the cell mass to which the medium was added were redispersed by gentle pipetting, and then centrifuged again at 1000 rpm for 3 minutes, and the supernatant was removed. The medium in an amount of 10 mL was added to the obtained cell mass, and the cell dispersion was filtered through a 40-μm nylon mesh (Cell Strainer) to remove the cell mass, thereby obtaining a neuronal cell suspension. The neuronal cell suspension was diluted with the medium, and 10% inactivated bovine serum (26140-079, Thermo Fisher Scientific) and 10% inactivated horse serum were added. Thereafter, 100 μL/well of the suspension was seeded in a 96-well plate (354461, CORNING) pre-coated with poly-D-lysine so that the initial culture density was 1.2×10^5 cells/cm^2. After the seeded cells were cultured under 5% CO2-95% air in a 37° C. incubator for 2 days, the entire medium was replaced with 120 μL of fresh medium, and the cells were subsequently cultured for 5 days.
On the 7th day of culture, compounds were added in the following manner. A solution of the test compound in DMSO was diluted with the medium so that the concentration was 10 times higher than the final concentration. Nerve Growth Factor (450-01, PEPRO TECH, INC.) was prepared at […]. These two solutions were added each in an amount of 15 μL/well, and the mixture was mixed well. The final DMSO concentration was 0.1% or less. Moreover, only DMSO and NGF were added to the control group.
(3) ACh Release Measurement
One day after the compound addition, an amount of ACh release was measured by HPLC in the following manner. A warmed buffer was added at 100 μL/well to the well after the medium was eliminated, and the buffer was immediately removed. Thereafter, a buffer to which 10 μm choline, 10 μm physostigmine, and 6 mM KCl were added was added at 120 μL/well. The buffer was prepared by adding 125 mM NaCl, 25 mM 4-(2-hydroxyethyl)-1-piperazineethanesulfonic acid, 1.2 mM KH2PO4, 1.2 mM MgSO4, 2.2 mM CaCl2 (2H2O), and 10 mM glucose to sterilized water, and the final pH of the solution was set to 7.4. After the 96-well plate to which the buffer was added was incubated under 5% CO2-95% air in a 37° C. incubator for 40 minutes, 80 μL of buffer was collected. An internal standard solution IPHC (5×10^−7 M) was added in an amount of 6 μL to the collected buffer, and the buffer was transferred to a tube for HPLC measurement and subjected to HPLC measurement. […]

[2] = tested on: Choline Acetyltransferase (ChAT) mRNA; test: Measurement of choline acetyltransferase (ChAT) mRNA expression levels in the rat septal area; assay type: in vivo; conditions: po, SD male rats, medial septum, 24 hours after administration, read-out: Amount (%) increased from the amount of ChAT mRNA expression levels in the vehicle administration group; for change in vivo at 1 mg/kg: 1 mg/kg orally; for change in vivo at 3 mg/kg: 3 mg/kg orally
Experimental: Measurement of Choline Acetyltransferase (ChAT) mRNA Expression Levels in the Rat Septal Area (1) Compound Administration
In this study, Sprague-Dawley male rats (Charles River Laboratories Japan, Inc.) with a body weight of about 250 to 350 g were used. The test compound was dissolved in 0.01 mol/L hydrochloric acid, and orally administered.
At 24 hours after the administration of the compound, the whole brain tissue was collected under pentobarbital anesthesia. The medial septum was isolated from whole brain on ice and frozen with liquid nitrogen, and then stored at −80° C.
(3) Measurement of ChAT mRNA Expression Levels
For RNA purification, RNeasy™ Plus Mini Kit (#74136: QIAGEN) was used in this study. RNA purification was performed by the method described in the kit After RNA purification, the total RNA concentration was measured by using QIAxpert Instrument (QIAGEN). cDNA was synthesized using SuperScript™ VILO™ cDNA Synthesis Kit (#11754: Thermo Fisher Scientific). The synthesis of cDNA was performed by the method described in the kit. The synthesized cDNA was diluted 4 times with RNase free water, and the diluted cDNA solution was used as a sample. Taqman™ Universal PCR Master Mix (#4304437: Thermo Fisher Scientific), Taqman™ Gene Expression Assays, INVENTORIED (#4331182: Thermo Fisher Scientific), RNase free water, and the cDNA solution were mixed in amounts of 10 μL, 1 μL, 4 μL, and 5 μL, respectively, and the resulting mixture was used as a measurement sample solution. Quantitative polymerase chain reaction (qPCR) was conducted using ABI PRISM™ 7900HT (Thermo Fisher Scientific) by a fluorescence probe method. Analysis was performed by SDS 2.4 (Thermo Fisher Scientific). The results were calculated by the percentage of the amount of ChAT mRNA expression levels in the compound administration group increased from the amount of ChAT mRNA expression levels in the vehicle administration group.

Row | Structure (SMILES) | minimal effective concentration [1] | change in vivo at 1 mg/kg [2] | change in vivo at 3 mg/kg [2] | change in vivo at 0.3 mg/kg ([2]; 0.3 mg/kg orally) | change in vivo at 10 mg/kg ([2]; 10 mg/kg orally)
1 | CN1CCc2sc3c(=O)n4c(nc3c2C1)CN(C)C(=O)[C@@H]1CCC[C@H]14 [Example 14, (3aR,14aR)-5,9-dimethyl-2,3,3a,5,6,8,9,10,11,14a-decahydro-1H-cyclopenta[f]pyrido[3″,4″:4′,5′]thieno[3′,2′:4,5]pyrimido[1,2-a][1,4]diazepine-4,13-dione] | 0.03 µM | 63.6% | – | – | –
2 | CN1Cc2nc3c(oc4cc(F)ccc43)c(=O)n2[C@@H]2CCC[C@H]2C1=O [Example 5, (3aR,14aR)-10-fluoro-5-methyl-3,3a,5,6-tetrahydro-1H-benzofuro[3′,2′:4,5]pyrimido[1,2-a]cyclopenta[f][1,4]diazepine-4,13(2H,14aH)-dione] | 0.03 µM | 54.1% | – | – | –
3 | COCCN1CCc2c(sc3nc4n(c(=O)c23)[C@@H]2CCC[C@@H]2C(=O)N(C)C4)C1 [Example 8] | 0.03 µM | – | 71.8% | – | –
4 | CN1Cc2nc3c(oc4cc(C(F)F)ccc43)c(=O)n2[C@@H]2CCC[C@@H]2C1=O [Example 9] | 0.03 µM | – | 112% | – | –
5 | CN1Cc2nc3c(oc4cc(C(F)(F)F)ccc43)c(=O)n2[C@H]2CCC[C@@H]2C1=O [Example 12, (3aS,14aS)-5-methyl-10-(trifluoromethyl)-2,3,3a,5,6,14a-hexahydro-1H-benzofuro[3′,2′:4,5]pyrimido[1,2-a]cyclopenta[f][1,4]diazepine-4,13-dione] | 0.03 µM | 44.7% | – | – | –
6 | COCCN1CCc2c(sc3nc4n(c(=O)c23)C(C)(C)CC(=O)N2CCCC42)C1 (single isomer, unassigned; (-)) [Example 13, (−)-12-(2-methoxyethyl)-7,7-dimethyl-1,2,3,6,7,10,11,12,13,15b-decahydro-5H,9H-pyrido[4″,3″:4′,5′]thieno[2′3′:4,5]pyrimido[1,2-a]pyrrolo[2,1-c][1,4]diazepine-5,9-dione] | 0.03 µM | 59.7% | – | – | –
7 | CN1CCc2c(sc3nc4n(c(=O)c23)[C@H]2COC[C@H]2C(=O)N(C)C4)C1 [Example 11, (+)-(3a,14a-cis)-5,10-dimethyl-1,3,3a,5,6,9,10,11,12,14a-decahydrofuro[3,4-f]pyrido[4″,3″:4′,5′]thieno[2′,3′:4,5]pyrimido[1,2-a][1,4]diazepine-4,13-dione] | 0.03 µM | 54.7% | – | – | –
8 | Cc1cc(C)c2c(n1)oc1c(=O)n3c(nc12)CN(C)C(=O)[C@H]1CCC[C@H]13 [Example 4, (3aS,14aR)-5,8,10-trimethyl-3,3a,5,6-tetrahydro-1H-cyclopenta[f]pyrido[3″,2″:4′,5′]furo[3′,2′:4,5]pyrimido[1,2-a][1,4]diazepine-4,13(2H,14aH)-dione] | 0.1 µM | 51.5% | – | – | –
9 | CN1C[C@H]2C(=O)N(C)Cc3nc4sc5c(c4c(=O)n3[C@H]2C1)CC[C@@H](F)C5 [Example 15, (3aR,10R,14aR)-10-fluoro-2,5-dimethyl-2,3,3a,5,6,9,10,11,12,14a-decahydro-1H-benzo[4′,5′]thieno[2′,3′:4,5]pyrimido[1,2-a]pyrrolo[3,4-f][1,4]diazepine-4,13-dione] | 0.3 µM | 49% | – | – | –
10 | CN1CCc2c(sc3nc4n(c(=O)c23)C(C)(C)CC(=O)N2C[C@H](F)C[C@H]42)C1 [Example 10, (2R,15bR)-2-fluoro-7,7,12-trimethyl-1,2,3,6,7,10,11,12,13,15b-decahydro-5H,9H-pyrido[4″,3″:4′,5′]thieno[2′3′:4,5]pyrimido[1,2-a]pyrrolo[2,1-c][1,4]diazepine-5,9-dione] | 0.03 µM | 50.6% | – | – | –
11 | CN1Cc2nc3c(oc4cc(C(F)(F)F)ccc43)c(=O)n2[C@@H]2CCC[C@H]2C1=O [Example 6] | 0.03 µM | – | – | 67.7% | –
12 | CN1Cc2nc3c(oc4ccccc43)c(=O)n2[C@@H]2CCC[C@@H]2C1=O [Example 1, (3aS,14aR)-5-methyl-3,3a,5,6-tetrahydro-1H-benzofuro[3′,2′:4,5]pyrimido[1,2-a]cyclopenta[f][1,4]diazepine-4,13(2H,14aH)-dione] | 0.03 µM | – | – | – | 76%
13 | CN1Cc2nc3c(oc4cc(F)ccc43)c(=O)n2[C@@H]2CCC[C@@H]2C1=O [Example 3, (3aS,14aR)-10-fluoro-5-methyl-3,3a,5,6-tetrahydro-1H-benzofuro[3′,2′:4,5]pyrimido[1,2-a]cyclopenta[f][1,4]diazepine-4,13(2H,14aH)-dione] | 0.03 µM | 53.7% | – | – | –
14 | CN1Cc2nc3sc4c(c3c(=O)n2[C@@H]2CCC[C@@H]2C1=O)CCN(CC(F)F)C4 [Example 7, (3aS,14aR)-10-(2,2-difluoroethyl)-5-methyl-2,3,3a,5,6,9,10,11,12,14a-decahydro-1H-cyclopenta[f]pyrido[4″,3″:4′,5′]thieno[2′,3′:4,5]pyrimido[1,2-a][1,4]diazepine-4,13-dione] | 0.3 µM | – | 76.6% | – | –
15 | CN1CCc2c(sc3nc4n(c(=O)c23)C(C)(C)CC(=O)N2CCCC42)C1 (single isomer, unassigned; (+)) [Example 2, (+)-7,7,12-trimethyl-1,2,3,6,7,10,11,12,13,15b-decahydropyrido[4″,3″:4′,5′]thieno[2′,3′:4,5]pyrimido[1,2-a]pyrrolo[2,1-c][1,4]diazepine-5,9-dione] | 0.03 µM | – | 53.6% | – | –
